Key:
livid amaranth [1] = assay: Foliar spread test for upland field; format: in vivo, Amaranthus lividus; parameters: key: 0 = normal development, 5 = all killed (6 ranks vs. untreated); settings: foliar spray, 500 ppm, 3 weeks, glass house 25° C.
How it was run: (§1)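 Plants grown about 2 weeks at 25 °C in volcanic ash soil were sprayed with wettable powder diluted to 500 ppm in water with 0.5% surfactant. After 3 weeks at 25 °C, damage was scored 0 (normal) to 5 (all killed) against untreated plants.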

barnyardgrjass = assay: Foliar spread test for upland field; format: in vivo, Eschinochloa crusgalli; parameters: key: 0 = normal development, 5 = all killed (6 ranks vs. untreated); settings: foliar spray, 500 ppm, 3 weeks, glass house 25° C.
How it was run: as §1

velvetleaf = assay: Soil treatment test for upland field; format: in vivo, Abutilon theophrasti; parameters: key: 0 = normal development, 5 = all killed; settings: 500 g/ha, 3 weeks, glass house 25° C.
How it was run: (§2)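 Pre-emergence soil spray, 500 g/ha, WP formulation in water + 0.05% surfactant; alluvial soil; glasshouse, avg 25° C, 3 wk. Score 0 (normal) to 5 (all killed) vs untreated.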

solgum [2] = assay: Soil treatment test for upland field; format: in vivo; parameters: key: 0 = normal development, 5 = all killed; settings: 500 g/ha, 3 weeks, glass house 25° C.
How it was run: as §2

wheat [3] = assay: Soil treatment test for upland field; format: in vivo; parameters: key: 0 = normal development, 5 = all killed; settings: 500 g/ha, 3 weeks, glass house 25° C.
How it was run: as §2

sugar beat [4] = assay: Soil treatment test for upland field; format: in vivo; parameters: key: 0 = normal development, 5 = all killed; settings: 500 g/ha, 3 weeks, glass house 25° C.
How it was run: as §2

corn [5] = assay: Soil treatment test for upland field; format: in vivo; parameters: key: 0 = normal development, 5 = all killed; settings: 500 g/ha, 3 weeks, glass house 25° C.
How it was run: as §2

morning glory = assay: Foliar spread test for upland field; format: in vivo, Ipomoea spps.; parameters: key: 0 = normal development, 5 = all killed (6 ranks vs. untreated); settings: foliar spray, 500 ppm, 3 weeks, glass house 25° C.
How it was run: as §1

[6] = test system: common Cocklebur (Xanthium strumarium); assay: Soil treatment test for upland field; format: in vivo; settings: 500 g/ha, 3 weeks, glass house 25° C. Note: key: 0: normal development; 1: Less damaged; 2: Slightly damaged; 3: Moderately damaged; 4: Severely damaged; 5: All killed.
How it was run: as §2

[7] = test system: sicklepod (Cassia obtusifolia); assay: Soil treatment test for upland field; format: in vivo; settings: 500 g/ha, 3 weeks, glass house 25° C. Note: key: 0: normal development; 1: Less damaged; 2: Slightly damaged; 3: Moderately damaged; 4: Severely damaged; 5: All killed.
How it was run: as §2

Large crabgrass = assay: Soil treatment test for upland field; format: in vivo, Digitaria adscendens; parameters: key: 0 = normal development, 5 = all killed; settings: 500 g/ha, 3 weeks, glass house 25° C.
How it was run: as §2

cotton = assay: Foliar spread test for upland field; format: in vivo; parameters: key: 0 = normal development, 5 = all killed (6 ranks vs. untreated); settings: foliar spray, 500 ppm, 3 weeks, glass house 25° C.
How it was run: as §1

solgum [8] = assay: Foliar spread test for upland field; format: in vivo; parameters: key: 0 = normal development, 5 = all killed (6 ranks vs. untreated); settings: foliar spray, 500 ppm, 3 weeks, glass house 25° C.
How it was run: as §1

wheat [9] = assay: Foliar spread test for upland field; format: in vivo; parameters: key: 0 = normal development, 5 = all killed (6 ranks vs. untreated); settings: foliar spray, 500 ppm, 3 weeks, glass house 25° C.
How it was run: as §1

sugar beat [10] = assay: Foliar spread test for upland field; format: in vivo; parameters: key: 0 = normal development, 5 = all killed (6 ranks vs. untreated); settings: foliar spray, 500 ppm, 3 weeks, glass house 25° C.
How it was run: as §1

soybean = assay: Foliar spread test for upland field; format: in vivo; parameters: key: 0 = normal development, 5 = all killed (6 ranks vs. untreated); settings: foliar spray, 500 ppm, 3 weeks, glass house 25° C.
How it was run: as §1

corn [11] = assay: Foliar spread test for upland field; format: in vivo; parameters: key: 0 = normal development, 5 = all killed (6 ranks vs. untreated); settings: foliar spray, 500 ppm, 3 weeks, glass house 25° C.
How it was run: as §1

green foxtail = assay: Soil treatment test for upland field; format: in vivo, Setaria viridis; parameters: key: 0 = normal development, 5 = all killed; settings: 500 g/ha, 3 weeks, glass house 25° C.
How it was run: as §2

common lambsquarters = assay: Foliar spread test for upland field; format: in vivo, Chenopodium album; parameters: key: 0 = normal development, 5 = all killed (6 ranks vs. untreated); settings: foliar spray, 500 ppm, 3 weeks, glass house 25° C.
How it was run: as §1

barnyard grass [12] = assay: Soil treatment test for upland field; format: in vivo, Eschinochloa crusgalli; parameters: key: 0 = normal development, 5 = all killed; settings: 500 g/ha, 3 weeks, glass house 25° C.
How it was run: as §2

blackgrass [13] = assay: Soil treatment test for upland field; format: in vivo, Alopecurus aegualis; parameters: key: 0 = normal development, 5 = all killed; settings: 500 g/ha, 3 weeks, glass house 25° C.
How it was run: as §2

barnyard grass [14] = assay: Herbicidal test for paddy field; format: in vivo, Eschinochloa crusgalli; settings: 500 g/ha, dropwise addition to paddy water at 1.5 leaf stage of barnyard grass; glass house 25° C., 3 weeks; rank 0-5 vs non-treated district; note: key: 0: normal development; 1: Less damaged; 2: Slightly damaged; 3: Moderately damaged; 4: Severely damaged; 5: All killed
How it was run: (§3)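 Wettable-powder formulations in water with 0.05% surfactant were dripped onto flooded (3 cm) Ube alluvial-soil pots at 500 g/ha, applied at barnyard grass 1.5-leaf stage. Plants were kept in a glasshouse at 25° C. for 3 weeks. Damage was scored 0 (normal) to 5 (all killed) versus untreated plants.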

livid amaranth [15] = assay: Soil treatment test for upland field; format: in vivo, Amaranthus lividus; parameters: key: 0 = normal development, 5 = all killed; settings: 500 g/ha, 3 weeks, glass house 25° C.
How it was run: as §2

arrowhead = assay: Herbicidal test for paddy field; format: in vivo, Sagittaria pygmaea; settings: 500 g/ha, dropwise addition to paddy water at 1.5 leaf stage of barnyard grass; glass house 25° C., 3 weeks; rank 0-5 vs non-treated district; note: key: 0: normal development; 1: Less damaged; 2: Slightly damaged; 3: Moderately damaged; 4: Severely damaged; 5: All killed
How it was run: as §3

blackgrass [16] = assay: Foliar spread test for upland field; format: in vivo, Alopecurus aegualis; parameters: key: 0 = normal development, 5 = all killed (6 ranks vs. untreated); settings: foliar spray, 500 ppm, 3 weeks, glass house 25° C.
How it was run: as §1

Xanthium pensylvanicum = assay: Foliar spread test for upland field; format: in vivo; parameters: key: 0 = normal development, 5 = all killed; settings: foliar spray, 500 ppm, 3 weeks, glass house 25° C.
How it was run: as §1

SMILES | Effects Livid amaranth (livid amaranth [1]) | Effects Barnyardgrass (barnyardgrjass) | Effects Velvetleaf (velvetleaf) | Effects Solgum (solgum [2]) | Effects Wheat (wheat [3]) | Effects Sugar beat (sugar beat [4]) | Effects Corn (corn [5]) | Effects Morning glory (morning glory) | Effects Common Cocklebur [6] | Effects Sicklepod [7] | Effects Large crabgrass (Large crabgrass) | Effects Sotton (cotton) | Effects Solgum (solgum [8]) | Effects Wheat (wheat [9]) | Effects Sugar beat (sugar beat [10]) | Effects Soybean (soybean) | Effects Corn (corn [11]) | Effects Green foxtail (green foxtail) | Effects Common lambsquarters (common lambsquarters) | Effects Barnyardgrass (barnyard grass [12]) | also measured
FC(F)(F)c1cccc(Oc2cccc(-c3nc4cc(Cl)ccc4o3)n2)c1 [I-a-3, 6-(5-chlorobenzoxazol-2-yl)-2-(3-trifluoromethylphenoxy)pyridine] | 5 | 1 | 3 | 1 | 1 | 5 | 1 | 5 | 2 | 5 | 5 | 4 | 1 | 1 | 4 | 3 | 1 | 5 | 5 | 4 | Effects Blackgrass (blackgrass [13]): 4; Effects Barnyardgrass (barnyard grass [14]): 3; Effects Livid amaranth (livid amaranth [15]): 5; Effects Arrowhead (arrowhead): 0; Effects Blackgrass (blackgrass [16]): 1; Effects Common Cocklebur (Xanthium pensylvanicum): 4
Fc1ccc2nc(-c3cccc(Oc4cccc(C(F)(F)F)c4)n3)oc2c1 [I-a-6, 6-(6-fluorobenzoxazol-2-yl)-2-(3-trifluoromethylphenoxy)pyridine] | 5 | 5 | 2 | 0 | 1 | 5 | 0 | 5 | 0 | 1 | 5 | 3 | 3 | 3 | 5 | 5 | 3 | 5 | 5 | 5 | Effects Blackgrass (blackgrass [13]): 5; Effects Barnyardgrass (barnyard grass [14]): 4; Effects Livid amaranth (livid amaranth [15]): 5; Effects Arrowhead (arrowhead): 0; Effects Blackgrass (blackgrass [16]): 5; Effects Common Cocklebur (Xanthium pensylvanicum): 5
Fc1ccc2nc(-c3cccc(Oc4ccc(F)c(C(F)(F)F)c4)n3)oc2c1 [I-a-7] | 5 | 1 | 0 | 0 | 0 | 5 | 0 | 3 | 0 | 3 | 5 | 3 | 2 | 2 | 5 | 3 | 1 | 5 | 4 | 4 | Effects Blackgrass (blackgrass [13]): 4; Effects Barnyardgrass (barnyard grass [14]): 1; Effects Livid amaranth (livid amaranth [15]): 5; Effects Arrowhead (arrowhead): 0; Effects Blackgrass (blackgrass [16]): 1; Effects Common Cocklebur (Xanthium pensylvanicum): 4

Source: patent US7402548B2, “Benzoxazole compounds, process for producing the same and herbicides” (Kyoyu Agri Co., Ltd., priority 2000, dated 2008)
